Patent US10785978B2, “Control and repellency of biting flies, house flies, ticks, ants, fleas, biting midges, cockroaches, spiders and stink bugs” (priority 2012, dated 2020)

Key:
Format in all cases: in vivo
[1] = system: house flies; test: House fly repellency on treated filter paper food trays in cages; conditions: 5% in isopropyl alcohol; over 6 hours
Experimental: The bottom of each cage was lined with brown craft paper and divided into 4 equal quadrants. Each quadrant housed a makeshift filter paper food tray. Two of the four filter papers were treated with repellent and two treated with isopropanol. Control cages contained filter papers that were treated with 4 filter papers of isopropanol only. The number of flies resting on filter paper per quadrant was recorded every 30 minutes for a total of 6 hours. Cages were rotated to eliminate positional bias. […] Each of the test samples were diluted in isopropyl alcohol.

[2] = system: sand flies P. papatasi; test: Sand fly bite test on treated human skin with K&D module; conditions: for percent biting, Treatment level 5%: 5% compound in isopropyl alcohol on human skin; for sand flies repelled: at 5%
Experimental: Control against sand flies was determined by the following protocol as generally described in J. Med. Entomol. 43 (6), 1248-1252 (2006). Volunteers wearing short pants were seated. Using a skin-marking template and a washable-ink marker, skin areas represented by 3- by 4-cm floor opening of six cells of a K&D module were outlined on the outer, top and inner thigh position of each leg of the volunteers. The six treated cell rectangles each represented a random block, and each volunteer had three blocks on each of two thighs. All treatments against the sand flies P. papatasi, were pipetted onto a 4- by 5-cm rectangular area (so the area of skin covered by a treatment exceeded the template marks by 0.5 cm in every direction) of the subjects' skin with 55 ul of isopropyl alcohol/treatment containing 10% or 5% compound/ul isopropyl alcohol. Treating a slightly larger area ensured that the areas beneath each K&D module contained only treated skin. Skin treated with isopropyl alcohol alone served as control. In all tests adjacent cells of the K&D module were supplied with ten sand flies. The sand fly charged K&D module was positioned over the treated skin areas and the trap doors of the K&D module above the areas were opened. After a five minute skin exposure the trap doors were closed. The number of sand fly bites was recorded for each cell. The percent biting is the percent compared to the biting for the control which was taken as 100%.

[3] = system: Black Widow spiders; test: Black Widow spider choice test in half-treated tube shelters; conditions: 5% in isopropanol; location after 24 hours
Experimental: Control against Black Widow spiders was determined using the following protocol. One test container containing two card stock tube shelters, one half treated with a test sample and the other half treated with isopropanol was prepared. A spider was introduced in the center of the tube. The spider was then given a choice to move to one end of the shelters. The following day, its location is recorded and compared to the results from a shelter containing untreated half-shelters.
On the day of the test one of the two shelters was sprayed with the test sample solution using a 2 oz pump spray bottle. Only the surfaces that the spider will most likely contact were treated. Therefore, only the inside of one of the shelter tubes, including the end disc (spiders will not be able to access the outside part of the shelter) were sprayed. The total amount of product was weighed and recorded. The treated surface was allowed to dry for a minimum of ½ hour, or until solvent could not be detected by smell. At this time the shelter tubes were assembled.
Card stock paper tube shelters were constructed from 2 half-letter sized sheets (5½″×8½″) of paper, rolled and taped together to form a short tube. One end of each was covered with a circle of card stock paper, while the other end was later taped to the open end of the other half sheet, forming one long tube. […] The solvent-treated half was labeled with a “C” on the inner and outer walls with a pencil or a pen with solvent resistant ink. Prior to forming the final tube shelter, a semi-circular hole was cut into one of the margins of each sheet such that, once the two tubes are taped together, the holes correspond to the top and at the junction of the tubes for introduction of the spiders.
Twenty-five arenas were prepared in this manner for each test sample. There were five replicates of five spiders. Twenty-five additional control arenas were also prepared. They were prepared the same way, except that areas to be sprayed were sprayed with isopropanol only.
Replicates of five spiders were selected for each test formulation and for the control. The specimens were visually examined for overall physical condition. […] The spiders were transferred directly into the holding vials using flexible forceps or with a little coaxing with an artist brush. Because of their cannibalistic tendencies, each vial contained only one spider. There they were held until the time for testing.
At the test start the spiders were placed directly in the middle, through the opening at the top of the shelter tube, and the opening covered, with only one spider per arena. […] They were left alone for 24 hours, after which time their location within the arena was recorded. Spiders present inside the shelter treated with the test repellent were considered tolerant.

[4] = system: brown marmorated stink bugs (BMSB); test: Brown marmorated stink bug repellency, treated vs. untreated filter paper arena
Experimental: The two semi-circle filter papers were aligned together to completely cover the bottom of the test arena. Control arenas were also set up in a similar fashion except both were treated with acetone. Five replicates of 5 BMSB were then introduced into both the treated and control arenas. By releasing them in the center of the arena, the BMSB were presented with a choice of treated vs. untreated substrate (or untreated vs. untreated in the control arenas). The repellency of the BMSB was recorded at 24 hours post-treatment.

[5] = five minute exposure, percent of control biting taken as 100%

CCC(C)=CCCC(C)=CCC1CCCC1=O (centres unmarked) [Methyl apritone, methyl apritone]
Overall % Repellency [1]: 45%
percent biting, Treatment level 5% [2, 5]: 9.9%^
percent biting, Treatment level-10% ([2]; 10% compound in isopropyl alcohol on human skin, five minute exposure, percent of control biting taken as 100%): 0%
sand flies repelled [2]: 90.1%
% Repellency [3]: 37.5%

CCCCCC1C(=O)CCC1CC(=O)OC (centres unmarked) [Methyl dihydrojasmonate, methyl dihydrojasmonate]
Overall % Repellency [1]: 52%
% Repellency at 24 hours ([4]; 2.5% in isopropyl alcohol): 74%
% Repellency at 24 hours ([4]; 5% in isopropyl alcohol): 100%
percent biting, Treatment level 5% [2, 5]: 0%
sand flies repelled [2]: 100%
% Repellency [3]: 87.5%
